# Molecular target: h-GABA-A α5β3γ2 (Homo sapiens (Human), UniProt P18507+P31644)
# Assay: Two-electrode voltage clamp electrophysiology in Xenopus oocytes expressing GABAA receptors, modulation of GABA EC20 current
# Format: cell-based
# Details: for Fold increase: positive control at a maximally effective concentration, 3-6 oocytes per 96-well plate
# Protocol: Xenopus laevis oocytes at maturation stages V-VI were used for the expression of cloned mRNA encoding GABAA receptor subunits. Oocytes ready for RNA micro-injection were bought from Ecocyte, Castrop-Rauxel, Germany and stored in modified Barth's medium (composition in mM: NaCl 88, KCl 1, NaHCO3 2.4, HEPES 10, MgSO4 0.82, CaNO3 0.33, CaCl2 0.33, pH=7.5) at 20° C. until the experiment.
# Oocytes were plated in 96-well plates to be used in an automated instrument (Robo-ocyte, MultiChannelSystems, Reutlingen, Germany) for microinjection and electrophysiological recordings. Approximately 50 nl of an aqueous solution containing the RNA transcripts for the subunits of the desired GABAA receptor was injected into each oocyte.
# Electrophysiological experiments were performed on days 3 to 5 after the micro-injection of mRNA. During the experiment the oocytes were constantly superfused by a solution containing (in mM) NaCl 90, KCl 1, HEPES 5, MgCl2 1, CaCl2 1 (pH 7.4). Oocytes were impaled by two glass microelectrodes (resistance: 0.4 MΩ) which were filled with a solution containing KCl 1M+K-acetate 1.5 M and voltage-clamped to −80 mV. The recordings were performed at room temperature using the Roboocyte two-electrode voltage clamp system (Multichannelsystem). After an initial equilibration period of 1.5 min GABA was added for 1.5 min at a concentration evoking approximately 20% of a maximal current response (EC20). After another rest interval of 2.5 min GABA was again added evoking a response of similar amplitude and shape. […] Current traces were recorded at a digitization rate of 10 Hz during and shortly before and after the GABA application.
# Each compound and concentration was tested on at least 3 oocytes.
# For the analysis, the digitized current traces of the first and second GABA response were superimposed and, if necessary, rescaled to equal maximal amplitudes. The ratio between the two responses during the time interval of test compound application was calculated point by point. The extremum of the resulting “ratio trace” was taken as the efficacy (“Fold increase”) of the compound expressed as “% modulation of GABA EC20” (100*(Fold increase−1)).
# [1] = Table 1, GABA at EC20, test compound at approx. 30 fold its Ki, Xenopus oocytes
# [2] = Table 2, reference compounds, % modulation of GABA EC20
# [3] = Table 2, reference compounds, GABAA α5β3γ2 overexpressing oocytes
# [4] = Table 1, % modulation of GABA EC20 = 100*(Fold increase−1)
# h-GABA-A α5β3γ2, sequence (P31644 32-462): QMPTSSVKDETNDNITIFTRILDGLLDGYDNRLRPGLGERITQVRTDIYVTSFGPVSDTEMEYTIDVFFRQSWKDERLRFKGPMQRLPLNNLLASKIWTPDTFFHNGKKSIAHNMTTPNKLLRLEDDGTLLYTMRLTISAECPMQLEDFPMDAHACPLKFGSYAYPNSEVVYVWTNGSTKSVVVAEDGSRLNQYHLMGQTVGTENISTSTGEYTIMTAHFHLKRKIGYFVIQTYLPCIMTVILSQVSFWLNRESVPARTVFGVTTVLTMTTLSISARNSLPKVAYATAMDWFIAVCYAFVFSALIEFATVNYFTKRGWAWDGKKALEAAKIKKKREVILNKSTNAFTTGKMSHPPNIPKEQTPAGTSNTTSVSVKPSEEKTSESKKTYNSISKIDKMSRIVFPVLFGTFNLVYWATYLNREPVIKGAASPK
# h-GABA-A α5β3γ2, sequence (P28472 26-473 partner): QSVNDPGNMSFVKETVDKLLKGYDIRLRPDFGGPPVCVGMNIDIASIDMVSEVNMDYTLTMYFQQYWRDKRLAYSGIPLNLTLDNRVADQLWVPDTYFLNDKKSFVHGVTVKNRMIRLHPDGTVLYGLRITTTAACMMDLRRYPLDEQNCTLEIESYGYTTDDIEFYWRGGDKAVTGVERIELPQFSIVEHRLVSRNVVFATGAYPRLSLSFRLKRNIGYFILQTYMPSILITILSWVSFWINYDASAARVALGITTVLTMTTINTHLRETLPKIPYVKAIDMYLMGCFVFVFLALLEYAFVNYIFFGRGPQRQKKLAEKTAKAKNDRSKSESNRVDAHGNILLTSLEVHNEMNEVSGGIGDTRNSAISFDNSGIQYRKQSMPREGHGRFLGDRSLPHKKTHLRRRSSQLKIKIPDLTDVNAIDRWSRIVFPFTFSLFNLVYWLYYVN
# h-GABA-A α5β3γ2, sequence (P18507 40-475): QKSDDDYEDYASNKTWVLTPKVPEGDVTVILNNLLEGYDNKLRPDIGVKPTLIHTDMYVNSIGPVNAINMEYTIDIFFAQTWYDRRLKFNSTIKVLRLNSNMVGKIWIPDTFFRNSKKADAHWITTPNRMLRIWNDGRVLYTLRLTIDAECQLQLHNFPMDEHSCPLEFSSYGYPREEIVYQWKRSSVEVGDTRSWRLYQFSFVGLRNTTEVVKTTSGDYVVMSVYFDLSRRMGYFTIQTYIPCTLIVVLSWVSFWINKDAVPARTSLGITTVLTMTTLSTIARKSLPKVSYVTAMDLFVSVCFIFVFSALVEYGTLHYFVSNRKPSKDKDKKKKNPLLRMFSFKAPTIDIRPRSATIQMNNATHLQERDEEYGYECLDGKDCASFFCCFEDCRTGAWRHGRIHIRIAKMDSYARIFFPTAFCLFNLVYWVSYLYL
smiles,measurement,setting,value
"Cc1ccc(-c2noc(C)c2COc2cc3c(cn2)C(=O)N(C2CCS(=O)(=O)CC2)C3)cn1 [Example 91, 2-(1,1-dioxothian-4-yl)-6-((5-methyl-3-(6-methylpyridin-3-yl)-1,2-oxazol-4-yl)methoxy)-1H-pyrrolo[3,4-c]pyridin-3-one]",Fold increase h-GABA-A α5β3γ2 oocyte,[1],2.4
"Cc1onc(-c2ccccn2)c1COc1ccc(C(=O)NC2CCOCC2)cn1 [RO-272, reference compound]",Efficacy (GABA) %,[2],−32%
same,Fold increase h-GABA-A α5β3γ2 oocyte,[3],0.68
"Cc1ncc2n1-c1ccc(Cl)cc1C(c1ccccc1F)=NC2 [Midazolam, reference compound]",potentiation of the GABA-induced current,positive control (PAM) at a maximally effective concentration,~150%
same,Fold increase,,~2.5
"CCC[C@@H](CO)NC(=O)c1cnc(OCc2c(-c3ccc(C)nc3)noc2C)cn1 [Example 14, N-((1S)-1-(hydroxymethyl)butyl)-5-((5-methyl-3-(6-methyl-3-pyridyl)isoxazol-4-yl)methoxy)pyrazine-2-carboxamide]",Fold increase h-GABA-A α5β3γ2 oocyte,[1],2.6
"Cc1onc(-c2cccnc2)c1COc1ccc(C(=O)NC2CCOCC2)nn1 [RE-A, 6-((5-methyl-3-(3-pyridyl)isoxazol-4-yl)methoxy)-N-tetrahydropyran-4-yl-pyridazine-3-carboxamide, reference compound]",Efficacy (GABA) %,[2],−3%
same,Fold increase h-GABA-A α5β3γ2 oocyte,[3],0.97
"Cc1ccc(-c2noc(C)c2COc2cc3c(cn2)C(=O)N(C)C3)cn1 [Example 10, 2-methyl-6-((5-methyl-3-(6-methylpyridin-3-yl)isoxazol-4-yl)methoxy)-1H-pyrrolo[3,4-c]pyridin-3(2H)-one]",Fold increase h-GABA-A α5β3γ2 oocyte,[1],1.8
"CCC[C@@H](CO)NC(=O)c1ccc(OCc2c(-c3ccc(C)nc3)noc2C)nc1 [Example 4, (S)—N-(1-hydroxypentan-2-yl)-6-((5-methyl-3-(6-methylpyridin-3-yl)isoxazol-4-yl)methoxy)nicotinamide]",Fold increase h-GABA-A α5β3γ2 oocyte,[1],2.5
"Cc1ccc(-c2noc(C)c2COc2ccc(C(=O)NC3CCOCC3)cn2)cc1 [RO-251, reference compound]",Efficacy (GABA) %,[2],−18%
same,Fold increase h-GABA-A α5β3γ2 oocyte,[3],0.82
"Cc1ccc(-c2noc(C)c2COc2ccc(C(=O)NC3CC4(COC4)C3)nn2)cn1 [Example 100, 6-((5-methyl-3-(6-methylpyridin-3-yl)isoxazol-4-yl)methoxy)-N-(2-oxaspiro[3.3]heptan-6-yl)pyridazine-3-carboxamide]",Fold increase h-GABA-A α5β3γ2 oocyte,[1],1.7
"Cc1ccc(-c2noc(C)c2COc2ccc(C(=O)NCC3(C)COC3)nn2)cn1 [Example 49, 6-((5-methyl-3-(6-methylpyridin-3-yl)isoxazol-4-yl)methoxy)-N-((3-methyloxetan-3-yl)methyl)pyridazine-3-carboxamide]",Fold increase h-GABA-A α5β3γ2 oocyte,[1],1.7
"Cc1ccc(-c2noc(C)c2COc2ccc(C(=O)NC3CC3)nn2)cn1 [Example 26, N-cyclopropyl-6-((5-methyl-3-(6-methylpyridin-3-yl)isoxazol-4-yl)methoxy)pyridazine-3-carboxamide]",Fold increase h-GABA-A α5β3γ2 oocyte,[1],1.8
"Cc1ccc(-c2noc(C)c2COc2ccc(C(=O)N[C@@H]3CC[C@@H](OCC(F)F)C3)nn2)cn1 [Example 191, N-((1R,3R)-3-(2,2-difluoroethoxy)cyclopentyl)-6-((5-methyl-3-(6-methylpyridin-3-yl)isoxazol-4-yl)methoxy)pyridazine-3-carboxamide]",Fold increase h-GABA-A α5β3γ2 oocyte,[1],1.6
"Cc1onc(-c2cccnc2)c1COc1ccc(C(=O)NC2CCOCC2)cn1 [RO-159, reference compound]",Efficacy (GABA) %,[2],−12%
same,Fold increase h-GABA-A α5β3γ2 oocyte,[3],0.88
"Cc1ccc(-c2noc(C)c2COc2ccc(C(=O)N[C@H]3CCCOC3)nn2)cn1 [Example 103, (S)-6-((5-methyl-3-(6-methylpyridin-3-yl)isoxazol-4-yl)methoxy)-N-(tetrahydropyran-3-yl)pyridazine-3-carboxamide]",Efficacy (GABA) %,[4],81%
"Cc1onc(-c2ccc(Cl)cn2)c1COc1ccc(C(=O)NC2CCOCC2)cn1 [RO-301, reference compound]",Efficacy (GABA) %,[2],−18%
same,Fold increase h-GABA-A α5β3γ2 oocyte,[3],0.82
"Cc1ccc(-c2noc(C)c2COc2cnc(C(=O)NC3CCC(F)(F)CC3)cn2)cn1 [Example 86, N-(4,4-difluorocyclohexyl)-5-((5-methyl-3-(6-methyl-3-pyridyl)isoxazol-4-yl)methoxy)pyrazine-2-carboxamide]",Fold increase h-GABA-A α5β3γ2 oocyte,[1],2.2
"Cc1ccc(-c2noc(C)c2COc2ccc(C(=O)N[C@H]3CCOC[C@@H]3O)cn2)cn1 [Example 127, N-((3R,4S)-3-hydroxytetrahydropyran-4-yl)-6-((5-methyl-3-(6-methyl-3-pyridyl)isoxazol-4-yl)methoxy)pyridine-3-carboxamide]",Fold increase h-GABA-A α5β3γ2 oocyte,[1],1.5
"Cc1ccc(-c2noc(C)c2COc2ccc(C(=O)N3CCC(F)(F)CC3)nn2)cn1 [Example 53, (4,4-difluoropiperidin-1-yl)(6-((5-methyl-3-(6-methylpyridin-3-yl)isoxazol-4-yl)methoxy)pyridazin-3-yl)methanone]",Fold increase h-GABA-A α5β3γ2 oocyte,[1],1.8
"Cc1ccc(-c2noc(C)c2COc2ccc(C(=O)NC3CCOCC3)cn2)nn1 [Example 108, 6-((5-methyl-3-(6-methylpyridazin-3-yl)isoxazol-4-yl)methoxy)-N-tetrahydropyran-4-yl-pyridine-3-carboxamide]",Fold increase h-GABA-A α5β3γ2 oocyte,[1],1.2
"Cc1ccc(-c2noc(C)c2COc2cnc(C(=O)NC3CCS(=O)(=O)CC3)cn2)cn1 [Example 72, N-(1,1-dioxothian-4-yl)-5-((5-methyl-3-(6-methyl-3-pyridyl)isoxazol-4-yl)methoxy)pyrazine-2-carboxamide]",Fold increase h-GABA-A α5β3γ2 oocyte,[1],2.3
"Cc1ccc(-c2noc(C)c2COc2ccc(C(=O)N3C4COCC3C4)nn2)cn1 [Example 157, 3-oxa-6-azabicyclo[3.1.1]heptan-6-yl(6-((5-methyl-3-(6-methylpyridin-3-yl)isoxazol-4-yl)methoxy)pyridazin-3-yl)methanone]",Efficacy (GABA) %,[4],76%
"Cc1onc(-c2ccc(Cl)nc2)c1COc1ccc(C(=O)NC2(C)COC2)nn1 [Example 161, 6-((3-(6-chloropyridin-3-yl)-5-methylisoxazol-4-yl)methoxy)-N-(3-methyloxetan-3-yl)pyridazine-3-carboxamide]",Fold increase h-GABA-A α5β3γ2 oocyte,[1],1.6
"CCc1onc(-c2ccc(C)nc2)c1COc1ccc(C(=O)NC2CCS(=O)(=O)CC2)cn1 [Example 120, N-(1,1-dioxidotetrahydro-2H-thiopyran-4-yl)-6-((5-ethyl-3-(6-methylpyridin-3-yl)isoxazol-4-yl)methoxy)pyridine-3-carboxamide]",Fold increase h-GABA-A α5β3γ2 oocyte,[1],2.6
"Cc1onc(-c2ccc(Cl)cn2)c1COc1ccc(C(=O)NC2CCOCC2)nn1 [RE-B, 6-((3-(5-chloro-2-pyridyl)-5-methyl-isoxazol-4-yl)methoxy)-N-tetrahydropyran-4-yl-pyridazine-3-carboxamide, reference compound]",Efficacy (GABA) %,[2],+3%
"Cc1ccc(-c2noc(C)c2COc2cnc(C(=O)NC3COC3)cn2)cn1 [Example 77, 5-((5-methyl-3-(6-methyl-3-pyridyl)isoxazol-4-yl)methoxy)-N-(oxetan-3-yl)pyrazine-2-carboxamide]",Efficacy (GABA) %,[4],11%
"Cc1ccc(-c2noc(C)c2COc2ccc(C(=O)N[C@H]3C[C@H](OCC(F)F)C3)nn2)cn1 [Example 170, trans-N-3-((2,2-difluoroethoxy)cyclobutyl)-6-((5-methyl-3-(6-methylpyridin-3-yl)isoxazol-4-yl)methoxy)pyridazine-3-carboxamide]",Fold increase h-GABA-A α5β3γ2 oocyte,[1],1.6
"Cc1ccc(-c2noc(C)c2COc2ccc(C(N)=O)cn2)cn1 [Example 17, 6-((5-methyl-3-(6-methylpyridin-3-yl)isoxazol-4-yl)methoxy)nicotinamide]",Fold increase h-GABA-A α5β3γ2 oocyte,[1],1.6
"Cc1ccc(-c2noc(C)c2COc2ccc(C(=O)N[C@@]3(C)CCOC3)nn2)cn1 [Example 81, (S)-6-((5-methyl-3-(6-methylpyridin-3-yl)isoxazol-4-yl)methoxy)-N-(3-methyltetrahydrofuran-3-yl)pyridazine-3-carboxamide]",Fold increase h-GABA-A α5β3γ2 oocyte,[1],1.8
"COC(=O)c1cc2c(cn1)[nH]c1ccccc12 [β-CCM, reference compound]",inhibition of the GABA-evoked current,positive control (NAM) at a maximally effective concentration,~50%
same,Fold increase,,~0.5
"Cc1onc(-c2ccccn2)c1COc1ccc(C(=O)NC2CCOCC2)nn1 [RO-094, reference compound]",Efficacy (GABA) %,[2],−18%
same,Fold increase h-GABA-A α5β3γ2 oocyte,[3],0.82

# Reference: patent publication US11091471B2, “Isoxazolyl ether derivatives as GABAA α5 PAM” (Hoffmann-La Roche Inc., priority 2016, dated 2021)
